In publication PMC11475289, “Synthetically accessible de novo design using reaction vectors: Application to PARP1 inhibitors” (Molecular Informatics, 2024):
Where two headings read alike, the source gives them in different places.

Tests used:
[1] = PAMPA BBB permeability (brain polar lipid coated filter); assay type: in vitro ADME; details: for MR (membrane retention): pH 7.4, 5 h; for Papp at 5 h, 500 μM: PAMPA
Protocol: The donor solution (150 μL) was then added to each well of the filter plate. 300 μL of the solution (50 % DMSO in phosphate buffer) were added to each well of the acceptor plate. The sandwich plate was assembled and incubated for 5 h at room temperature. After the incubation time, plates were separated, samples were taken from both the donor and acceptor wells, and the compound concentration was measured by UV/LC–MS. All compounds were tested in three independent experiments. […] (3) Papp=VD×VA/VD+VAAt-ln(1-r)
Equation (3): Experimental apparent permeability (Papp) calculation as described in the literature modified to yield values in cm s^−1 [67, 68]. […] Drug concentration is estimated by using the peak area integration. (4) %MR=[r-D+A]/Eq×100
Equation (4): Membrane retention calculation: r is the ratio between drug concentration in the acceptor and equilibrium solutions. D, A, and Eq represent the drug concentration in the donor, acceptor, and equilibrium solutions, respectively.

full-length human PARP1 = biological target: T1, full-length human PARP1 (Homo sapiens, UniProt P09874); assay: PARP1 enzymatic assay (homogeneous NAD+ consumption assay); assay type: biochemical; details: 5 nM PARP1, 500 nM NAD+, 30 min
T1 construct: Briefly, full‐length human PARP1 was produced in E. coli Rosetta2 (DE3); made in house; host or cells: E. coli Rosetta2 (DE3)
Protocol: PARP1 was expressed and purified as described in the literature. Briefly, full‐length human PARP1 was produced in E. coli Rosetta2 (DE3). The cells were harvested by centrifugation, and re‐suspended in lysis buffer containing 50 mM HEPES pH 8.0, 500 mM NaCl, 10 % glycerol, 0.5 mM TCEP and 10 mM imidazole. The sample was lysed using sonication in the presence of DNAse1 and 3‐aminobenzamide, centrifuged at 18,000 rpm for 1 h and the supernatant was filtered. The clarified sample was loaded to a HiTrap^TM IMAC column (Cytiva), washed with lysis buffer, then with a similar buffer containing 1 M NaCl, and finally with lysis buffer containing 25 mM imidazole before eluting the protein with 500 mM imidazole. The eluted sample was then diluted to reduce NaCl concentration to 250 mM, and loaded to a HiTrap Heparin column (Cytiva). The column was washed with 50 mM HEPES, 250 mM NaCl, 10 % glycerol, 1 mM EDTA, 0.1 mM TCEP, pH 7.5. and the sample was eluted using a gradient with a similar buffer containing 1 M NaCl. Fractions were analyzed by SDS‐PAGE and those containing protein were pooled and concentrated before aliquoting and stored at −70 °C.
IC50 was determined using homogeneous NAD^+ consumption assay. 5 nM PARP1 was incubated with each compound in log half dilution series for 30 min in 50 mM Tris pH 8.0, 5 mM MgCl2, 0.2 mg mL^−1 BSA, 10 μg mL^−1 activated DNA and 500 nM NAD^+. The reactions were performed in quadruplicates and resulting IC50 curves were fitted to a sigmoidal dose‐response curve (four variables) using GraphPad Prism version 8.02. Each experiment was repeated three times from which pIC50±SEM was calculated. Compounds with IC50 above 1 μM were measured only once.

[2] = pH 7.4, pH 7.4, donor 500 μM, 5 h, room temperature, read-out: PAMPA BBB Papp

T1 sequence (P09874 whole entry): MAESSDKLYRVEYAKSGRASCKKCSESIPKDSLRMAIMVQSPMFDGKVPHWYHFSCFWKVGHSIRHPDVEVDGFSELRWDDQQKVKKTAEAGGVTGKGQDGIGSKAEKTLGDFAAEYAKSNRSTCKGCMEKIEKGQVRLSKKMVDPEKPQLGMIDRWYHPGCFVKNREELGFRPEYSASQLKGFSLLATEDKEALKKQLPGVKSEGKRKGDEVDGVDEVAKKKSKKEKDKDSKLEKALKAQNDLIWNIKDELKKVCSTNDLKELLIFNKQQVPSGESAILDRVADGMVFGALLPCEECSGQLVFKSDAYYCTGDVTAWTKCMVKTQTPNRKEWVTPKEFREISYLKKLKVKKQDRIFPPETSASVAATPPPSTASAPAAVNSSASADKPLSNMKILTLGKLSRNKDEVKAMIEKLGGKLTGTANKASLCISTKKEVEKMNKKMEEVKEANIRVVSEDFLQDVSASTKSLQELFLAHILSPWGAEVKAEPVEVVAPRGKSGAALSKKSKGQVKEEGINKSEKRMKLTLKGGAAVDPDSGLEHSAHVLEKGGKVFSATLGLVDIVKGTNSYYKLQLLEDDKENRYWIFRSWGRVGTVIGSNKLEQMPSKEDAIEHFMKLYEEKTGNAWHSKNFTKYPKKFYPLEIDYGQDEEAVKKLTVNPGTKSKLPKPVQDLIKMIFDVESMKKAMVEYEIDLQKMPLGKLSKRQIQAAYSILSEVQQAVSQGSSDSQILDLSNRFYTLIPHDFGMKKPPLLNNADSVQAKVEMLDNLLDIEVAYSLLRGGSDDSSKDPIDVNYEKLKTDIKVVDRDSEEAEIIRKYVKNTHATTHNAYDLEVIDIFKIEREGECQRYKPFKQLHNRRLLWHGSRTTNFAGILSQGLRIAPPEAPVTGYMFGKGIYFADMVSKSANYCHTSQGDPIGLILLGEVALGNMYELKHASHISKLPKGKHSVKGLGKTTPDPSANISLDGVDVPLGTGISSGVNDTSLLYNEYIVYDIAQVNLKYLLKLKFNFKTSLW

| Structure (SMILES) | MR (membrane retention) ([1]; PAMPA BBB) [%] | IC50 (result in words) (full-length human PARP1) | IC50 (full-length human PARP1; averaged on three replicas) [nM] | further results |
| --- | --- | --- | --- | --- |
| O=C(c1cc(Cc2n[nH]c(=O)c3ccccc23)ccc1F)N1CCN(C(=O)C2CC2)CC1 [Olaparib, reference compound] | 3.0 | – | – | – |
| Cc1cc(COC(=O)c2c(C)ccc3[nH]ncc23)ccc1C(=O)N1CCOCC1 [Row26, [3‐Methyl‐4‐(morpholine‐4‐carbonyl)phenyl]methyl 5‐methyl‐1H‐indazole‐4‐carboxylate] | – | No inhibition | – | – |
| O=c1[nH]nc(-c2ccc(Br)cc2)c2ccccc12 [Row86 (I), 4‐(4‐bromophenyl)‐2H‐phthalazin‐1‐one] | – | sub‐micromolar | 395 | – |
| CCCC(O)c1ccc(-c2n[nH]c(=O)c3ccccc23)cc1 (stereo not drawn) [Row86, 4‐[4‐(1‐Hydroxybutyl)phenyl]‐1,2‐dihydrophthalazin‐1‐one] | – | sub‐micromolar | 755 | – |
| Cc1cc2cc(C(=O)OCc3ccc(C(=O)N4CCOCC4)c(C)c3)ccc2c(=O)[nH]1 [Row514, [3‐Methyl‐4‐(morpholine‐4‐carbonyl)phenyl]methyl 3‐methyl‐1‐oxo‐1,2‐dihydroisoquinoline‐6‐carboxylate] | 0.8 | – | – | BBB permeability relative to reference Olaparib ([1]; PAMPA BBB, ratio of Papp): approximately 20 times; Papp at 5 h, 500 μM [1, 2]: 0.325 ×10⁻⁶ cm/s; IC50 (full-length human PARP1; IC50 above 1 μM measured once): 19000 nM |
| Cc1cc(CN)ccc1-c1cc(F)c2c(c1)C(=O)NCC2.Cl [Row528 (I), 7‐[4‐(Aminomethyl)‐2‐methylphenyl]‐5‐fluoro‐1,2,3,4‐tetrahydroisoquinolin‐1‐one hydrochloride] | – | No inhibition | – | – |
| C#CCCNCc1ccc(-c2cc(F)c3c(c2)C(=O)NCC3)c(C)c1 [Row528, 7‐(4‐{[(But‐3‐yn‐1‐yl)amino]methyl}‐2‐methylphenyl)‐5‐fluoro‐1,2,3,4‐tetrahydroisoquinolin‐1‐one] | – | No inhibition | – | – |
| CC1CC1C(=O)c1ccc(-c2n[nH]c(=O)c3ccccc23)cc1 (stereo not drawn) [Row745(2), 4‐[4‐(2‐Methylcyclopropanecarbonyl)phenyl]‐1,2‐dihydrophthalazin‐1‐one] | 3.6 | sub‐micromolar | 908 | Papp at 5 h, 500 μM ([1]; pH 7.4, PAMPA BBB, read-out: BBB permeability (diffusion)): 2.1 ×10⁻⁶ cm/s; Papp at 5 h, 500 μM [1, 2]: 2.1 ×10⁻⁶ cm/s |
| Cc1ccc(Cn2cc(CCN)c3c(C#N)cccc32)cc1 [Row847, 3‐(2‐Aminoethyl)‐1‐[(4‐methylphenyl)methyl]‐1H‐indole‐4‐carbonitrile] | – | – | – | IC50 (full-length human PARP1; IC50 above 1 μM measured once): 16000 nM |
